Patent US20240148821A1, “PHARMACEUTICAL USE OF CYCLIC PEPTIDE COMPOUND” (CHUGAI SEIYAKU KABUSHIKI KAISHA, priority 2021, published 2024)
Numbered stars: 1 amine (or outer) side, 2 acyl side, 3 side chain; on linkers, the order of the positions; unused ones are H or OH. Bridge positions count the residues as written; N and C are the ends. Square brackets hold non-standard residues; d marks the D form. Peptide text beside a SMILES is read from it. * marks the point of attachment. hPhe(3,5-F2-4-CF3) = N[C@@H](CCc1cc(F)c(C(F)(F)F)c(F)c1)C(=O)O; hPhe(3-Cl-4-CF3) = N[C@@H](CCc1ccc(C(F)(F)F)c(Cl)c1)C(=O)O; hPhe(3-F,4-CF3) = N[C@@H](CCc1ccc(C(F)(F)F)c(F)c1)C(=O)O; NEtPhe(4-CF3) = CCN[C@@H](Cc1ccc(C(F)(F)F)cc1)C(=O)O; hPhe(4-CF3) = N[C@@H](CCc1ccc(C(F)(F)F)cc1)C(=O)O; NMePhe(4-Cl) = CN[C@@H](Cc1ccc(Cl)cc1)C(=O)O; NMePhe(4-Me) = CN[C@@H](Cc1ccc(C)cc1)C(=O)O; NMePhe(3-F) = CN[C@@H](Cc1cccc(F)c1)C(=O)O; NMedβ3hAla = C[C@H](CC(=O)[*:2])N(C)[*:1]; hPhe(4-F) = N[C@@H](CCc1ccc(F)cc1)C(=O)O; NMeGly(cPent) = CN[C@H](C(=O)O)C1CCCC1; NMeCha = CN[C@@H](CC1CCCCC1)C(=O)O; Hyp = O=C(O)[C@@H]1C[C@@H](O)CN1; NMeChg = CN[C@H](C(=O)O)C1CCCCC1; NMeI = CC[C@H](C)[C@H](NC)C(=O)O; d(β3hL) = CC(C)C[C@@H](N)CC(=O)O; NMeβAla = CN(CCC(=O)[*:2])[*:1]; NMeD = CN[C@@H](CC(=O)O)C(=O)O; NMeL = CN[C@@H](CC(C)C)C(=O)O; NMeV = CN[C@H](C(=O)O)C(C)C; d(β3hA) = C[C@@H](N)CC(=O)O; NMeS = CN[C@@H](CO)C(=O)O; Morpholide = C1CN(*)CCO1; NMeA = CN[C@@H](C)C(=O)O; NMeAib = CNC(C)(C)C(=O)O; Piperidide = C1CCN(*)CC1; dNMeA = CN[C@H](C)C(=O)O; Ac5c = NC1(C(=O)O)CCCC1; Aze = O=C(O)[C@@H]1CCN1; CH2CMe2OH = CC(C)(O)C*; Aib = CC(C)(N)C(=O)O; Sar = CNCC(=O)O; Propyl = CCC*

What follows are compounds tested against protein-protein interaction between Kras and SOS1 (biotin-tagged human Kras loaded with GDP, His-tagged human SOS1) (Homo sapiens (Human), UniProt P01116, G12D) (assay: Protein-protein interaction inhibition between Kras and SOS1 (KrasG12D-SOS PPI) using AlphaScreen). Details: AlphaScreen; biotin-tagged human Kras loaded with GDP, His-tagged human SOS1; read-out: KRAS G12D-SOS PPI IC50.
Format: biochemical

Compound	IC50 [nM]
CCO[C@@H]1C[C@H]2C(=O)NC3(CCCC3)C(=O)N(C)[C@@H](C3CCCC3)C(=O)N(C)[C@H](C)CC(=O)N(C)[C@@H](CC(C)C)C(=O)N[C@@H]([C@@H](C)CC)C(=O)N[C@@H](C)C(=O)N3CC[C@H]3C(=O)N(CC)[C@@H](Cc3ccc(C(F)(F)F)cc3)C(=O)N(C)CC(=O)N[C@@H](CCc3cc(F)c(C(F)(F)F)c(F)c3)C(=O)N2C1 [Compound 785] (cyclo(A[Aze][NEtPhe(4-CF3)][Sar][hPhe(3,5-F2-4-CF3)][Hyp](Et)[Ac5c][NMeGly(cPent)][NMedβ3hAla][NMeL]I))	3.5
CC[C@H](C)[C@@H]1NC(=O)[C@H](CC(C)C)N(C)C(=O)C[C@@H](C(=O)N2CCCCC2)N(C)C(=O)[C@H](C2CCCCC2)N(C)C(=O)C2(CCCC2)NC(=O)[C@H](COCC(C)(C)O)N(C)C(=O)[C@H](CCc2ccc(C(F)(F)F)c(Cl)c2)NC(=O)CN(C)C(=O)[C@H](CC2CCCCC2)N(C)C(=O)CN(C)C(=O)CN(C)C1=O [Compound 789] ([NMeL]I[Sar][Sar][NMeCha][Sar][hPhe(3-Cl-4-CF3)][NMeS](CH2CMe2OH)[Ac5c][NMeChg][NMeD]-Piperidide; lactam N-11)	0.61
CC[C@H](C)[C@@H]1NC(=O)[C@H](CC(C)C)N(C)C(=O)C[C@@H](C(=O)N2CCOCC2)N(C)C(=O)[C@H]([C@@H](C)CC)N(C)C(=O)C2(CCCC2)NC(=O)[C@@H]2CCCN2C(=O)[C@H](CCc2ccc(C(F)(F)F)c(F)c2)NC(=O)CN(C)C(=O)[C@H](CC2CCCCC2)N(C)C(=O)[C@@H]2CCN2C(=O)[C@H](C)N(C)C1=O [Compound 790] ([NMeL]I[NMeA][Aze][NMeCha][Sar][hPhe(3-F,4-CF3)]P[Ac5c][NMeI][NMeD]-Morpholide; lactam N-11)	2.5
CC[C@H](C)[C@@H]1NC(=O)[C@H](C)N(C)C(=O)C[C@@H](C)NC(=O)[C@H](C2CCCC2)N(C)C(=O)C2(CCCC2)NC(=O)[C@@H]2CCCN2C(=O)[C@H](CCc2ccc(C(F)(F)F)c(Cl)c2)NC(=O)[C@@H](C)N(C)C(=O)[C@H](Cc2cccc(F)c2)N(C)C(=O)[C@@H]2CCN2C(=O)[C@H](C)N(C)C1=O [Compound 795] (cyclo([Ac5c][NMeGly(cPent)][d(β3hA)][NMeA]I[NMeA][Aze][NMePhe(3-F)][dNMeA][hPhe(3-Cl-4-CF3)]P))	72
CC[C@H](C)[C@@H]1NC(=O)[C@H](CC(C)C)N(C)C(=O)C[C@@H](CC(C)C)NC(=O)[C@H]([C@@H](C)CC)N(C)C(=O)C2(CCCC2)NC(=O)[C@@H]2CCCN2C(=O)[C@H](CCc2ccc(C(F)(F)F)c(Cl)c2)NC(=O)CN(C)C(=O)[C@H](CC2CCCCC2)N(C)C(=O)[C@@H]2CCN2C(=O)[C@H](C)N(C)C1=O [Compound 798] (cyclo([Ac5c][NMeI][d(β3hL)][NMeL]I[NMeA][Aze][NMeCha][Sar][hPhe(3-Cl-4-CF3)]P))	59
CC[C@H](C)[C@@H]1NC(=O)[C@H](CC(C)C)N(C)C(=O)C[C@@H](C(=O)N2CCCCC2)N(C)C(=O)[C@H]([C@@H](C)CC)N(C)C(=O)C2(CCCC2)NC(=O)[C@@H]2CCCN2C(=O)[C@H](CCc2ccc(C(F)(F)F)c(Cl)c2)NC(=O)CN(C)C(=O)[C@H](C2CCCC2)N(C)C(=O)[C@@H]2CCN2C(=O)[C@H](C)N(C)C1=O [Compound 807] ([NMeL]I[NMeA][Aze][NMeGly(cPent)][Sar][hPhe(3-Cl-4-CF3)]P[Ac5c][NMeI][NMeD]-Piperidide; lactam N-11)	0.74
CCCOC[C@H]1C(=O)N(C)CC(=O)N[C@@H](CCc2ccc(C(F)(F)F)c(F)c2)C(=O)N2CCC[C@H]2C(=O)NC2(CCCC2)C(=O)N(C)[C@@H]([C@@H](C)CC)C(=O)N(C)[C@H](C(=O)N2CCOCC2)CC(=O)N(C)[C@@H](CC(C)C)C(=O)N[C@@H]([C@@H](C)CC)C(=O)N(C)[C@@H](C)C(=O)N2CC[C@H]2C(=O)N1C [Compound 827] ([NMeL]I[NMeA][Aze][NMeS](Propyl)[Sar][hPhe(3-F,4-CF3)]P[Ac5c][NMeI][NMeD]-Morpholide; lactam N-11)	2.8
CC[C@H](C)[C@@H]1NC(=O)[C@H](CC(C)C)N(C)C(=O)C[C@@H](C(=O)N(C)C)N(C)C(=O)[C@H]([C@@H](C)CC)N(C)C(=O)CNC(=O)[C@@H]2CCCN2C(=O)[C@H](CCc2ccc(C(F)(F)F)c(Cl)c2)NC(=O)CN(C)C(=O)[C@H](Cc2ccc(C)cc2)N(C)C(=O)[C@@H]2CCN2C(=O)[C@H](C)N(C)C1=O [Compound 828] ([NMeL]I[NMeA][Aze][NMePhe(4-Me)][Sar][hPhe(3-Cl-4-CF3)]PG[NMeI][NMeD]-NMe2; lactam N-11)	40
CC[C@H](C)[C@@H]1NC(=O)[C@H](CC(C)C)N(C)C(=O)CCN(C)C(=O)[C@H](CC(C)C)NC(=O)C(C)(C)N(C)C(=O)[C@H](CC(C)C)NC(=O)[C@H](CCc2ccc(C(F)(F)F)c(F)c2)NC(=O)CN(C)C(=O)[C@H](CC2CCCCC2)N(C)C(=O)CN(C)C(=O)CN(C)C1=O [Compound 832] (cyclo(I[Sar][Sar][NMeCha][Sar][hPhe(3-F,4-CF3)]L[NMeAib]L[NMeβAla][NMeL]))	120
CC[C@H](C)[C@@H]1NC(=O)[C@H](CC(C)C)N(C)C(=O)C[C@@H](C)NC(=O)[C@H](CC(C)C)N(C)C(=O)C(C)(C)NC(=O)[C@H](CC(C)C)N(C)C(=O)[C@H](CCc2ccc(C(F)(F)F)cc2)NC(=O)CN(C)C(=O)[C@H](CC2CCCCC2)N(C)C(=O)CN(C)C(=O)CN(C)C1=O [Compound 839] (cyclo([Aib][NMeL][d(β3hA)][NMeL]I[Sar][Sar][NMeCha][Sar][hPhe(4-CF3)][NMeL]))	220
CC[C@H](C)[C@@H]1NC(=O)[C@H](CC(C)C)N(C)C(=O)C[C@@H](C)NC(=O)[C@H](CC(C)C)N(C)C(=O)C2(CCCC2)NC(=O)[C@H](CC(C)C)N(C)C(=O)[C@H](CCc2ccc(C(F)(F)F)cc2)NC(=O)CN(C)C(=O)[C@H](Cc2ccc(Cl)cc2)N(C)C(=O)CN(C)C(=O)CN(C)C1=O [Compound 843] (cyclo([Ac5c][NMeL][d(β3hA)][NMeL]I[Sar][Sar][NMePhe(4-Cl)][Sar][hPhe(4-CF3)][NMeL]))	49
CCCOC[C@H]1C(=O)N2CC[C@H]2C(=O)N(C)[C@@H](CC2CCCCC2)C(=O)N(C)CC(=O)N[C@@H](CCc2ccc(C(F)(F)F)c(Cl)c2)C(=O)N2CCC[C@H]2C(=O)NC2(CCCC2)C(=O)N(C)[C@@H](C(C)C)C(=O)N[C@H](C)CC(=O)N(C)[C@@H](CC(C)C)C(=O)N[C@@H]([C@@H](C)CC)C(=O)N1C [Compound 852] (cyclo([Ac5c][NMeV][d(β3hA)][NMeL]I[NMeS](Propyl)[Aze][NMeCha][Sar][hPhe(3-Cl-4-CF3)]P))	190
CC[C@H](C)[C@@H]1NC(=O)[C@H](CC(C)C)N(C)C(=O)C[C@@H](C)N(C)C(=O)[C@H]([C@@H](C)CC)N(C)C(=O)C2(CCCC2)NC(=O)[C@@H]2CCCN2C(=O)[C@H](CCc2ccc(C(F)(F)F)c(F)c2)NC(=O)CN(C)C(=O)[C@H](CC2CCCCC2)N(C)C(=O)[C@@H]2CCN2C(=O)[C@H](C)N(C)C1=O [Compound 859] (cyclo([Ac5c][NMeI][NMedβ3hAla][NMeL]I[NMeA][Aze][NMeCha][Sar][hPhe(3-F,4-CF3)]P))	64
CC[C@H](C)[C@@H]1NC(=O)[C@H](C)N(C)C(=O)C[C@@H](C(=O)N2CCCCC2)N(C)C(=O)[C@H](C(C)C)N(C)C(=O)C2(CCCC2)NC(=O)[C@@H]2CCCN2C(=O)[C@H](CCc2ccc(F)cc2)NC(=O)CN(C)C(=O)[C@H](CC2CCCCC2)N(C)C(=O)[C@@H]2CCN2C(=O)[C@H](C)N(C)C1=O [Compound 860] ([NMeA]I[NMeA][Aze][NMeCha][Sar][hPhe(4-F)]P[Ac5c][NMeV][NMeD]-Piperidide; lactam N-11)	210
